The supplement of paper PMC12463676, “Small-molecule dissolution of stress granules by redox modulation benefits ALS models” (Nature Chemical Biology, 2025)

What was measured:
[1] = compound: O=[As]([O-])(O)O.[K+] [potassium arsenate]; assay: thermal stability z-score vs DMSO; higher = more thermally stabilized by treatment; details: HeLa; arsenate concentration 1 mM
Experimental: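 Cellular thermal proteome profiling in HeLa cells treated with 1 mM arsenate for 1 h (DMSO pretreatment), heated to ten temperatures (37-66.3 °C). Soluble protein was quantified by TMT mass spectrometry relative to DMSO controls; the thermal stability score was transformed to a z-score; mean of n = 3 experiments.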

[2] = compound: NC(=O)CCCCC1CCSS1 [lipoamide]; assay: as above; details: HeLa, lipoamide concentration 100 µM
Experimental: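 Cellular thermal proteome profiling in HeLa cells. Cells were treated with 100 µM lipoamide for 1 h, with or without 1 mM arsenate for a further 1 h, then heated to ten temperatures (37-66.3 °C), and soluble protein was quantified by TMT mass spectrometry relative to 0.1% DMSO controls. The thermal stability score (sum of log2 fold changes minus the abundance score) was transformed to a z-score; mean of n = 3 experiments.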

[3] = arsenate co-treatment: 1 mM arsenate 1 h
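Further: each temperature applied for 3 min, abundance score taken as mean log2 fold change at the two lowest temperatures, z-score obtained by mean subtraction and division by SD.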

Chain of UniProt Q6IQ22 (Q6IQ22 whole entry): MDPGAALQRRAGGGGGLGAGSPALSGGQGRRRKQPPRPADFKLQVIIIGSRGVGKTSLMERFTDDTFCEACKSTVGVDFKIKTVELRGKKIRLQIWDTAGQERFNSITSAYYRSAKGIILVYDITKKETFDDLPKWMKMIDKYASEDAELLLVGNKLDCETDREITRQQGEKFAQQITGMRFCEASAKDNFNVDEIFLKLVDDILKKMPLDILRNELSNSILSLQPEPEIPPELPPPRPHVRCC
Chain of UniProt Q92930 (Q92930 whole entry): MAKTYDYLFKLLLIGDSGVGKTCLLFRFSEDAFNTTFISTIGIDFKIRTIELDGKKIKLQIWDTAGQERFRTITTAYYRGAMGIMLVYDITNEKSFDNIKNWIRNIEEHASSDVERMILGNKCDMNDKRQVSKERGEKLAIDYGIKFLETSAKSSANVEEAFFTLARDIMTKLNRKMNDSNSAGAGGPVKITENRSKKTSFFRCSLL
Chain of UniProt P53611 (P53611 whole entry): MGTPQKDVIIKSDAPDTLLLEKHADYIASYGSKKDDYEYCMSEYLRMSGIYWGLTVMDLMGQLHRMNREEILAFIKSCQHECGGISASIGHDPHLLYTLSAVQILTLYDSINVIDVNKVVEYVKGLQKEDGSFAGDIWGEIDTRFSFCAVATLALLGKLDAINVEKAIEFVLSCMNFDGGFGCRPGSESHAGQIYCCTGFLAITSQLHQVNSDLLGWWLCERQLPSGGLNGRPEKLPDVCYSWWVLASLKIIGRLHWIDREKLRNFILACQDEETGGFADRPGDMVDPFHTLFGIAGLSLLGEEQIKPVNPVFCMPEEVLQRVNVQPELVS
Chain of UniProt Q15771 (Q15771 whole entry): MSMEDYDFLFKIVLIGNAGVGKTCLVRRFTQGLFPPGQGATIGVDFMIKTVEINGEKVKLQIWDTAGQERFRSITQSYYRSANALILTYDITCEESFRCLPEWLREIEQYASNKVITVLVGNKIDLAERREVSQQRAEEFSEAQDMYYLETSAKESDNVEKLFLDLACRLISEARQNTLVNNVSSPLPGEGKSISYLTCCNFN
Chain of UniProt Q9BXF6 (Q9BXF6 whole entry): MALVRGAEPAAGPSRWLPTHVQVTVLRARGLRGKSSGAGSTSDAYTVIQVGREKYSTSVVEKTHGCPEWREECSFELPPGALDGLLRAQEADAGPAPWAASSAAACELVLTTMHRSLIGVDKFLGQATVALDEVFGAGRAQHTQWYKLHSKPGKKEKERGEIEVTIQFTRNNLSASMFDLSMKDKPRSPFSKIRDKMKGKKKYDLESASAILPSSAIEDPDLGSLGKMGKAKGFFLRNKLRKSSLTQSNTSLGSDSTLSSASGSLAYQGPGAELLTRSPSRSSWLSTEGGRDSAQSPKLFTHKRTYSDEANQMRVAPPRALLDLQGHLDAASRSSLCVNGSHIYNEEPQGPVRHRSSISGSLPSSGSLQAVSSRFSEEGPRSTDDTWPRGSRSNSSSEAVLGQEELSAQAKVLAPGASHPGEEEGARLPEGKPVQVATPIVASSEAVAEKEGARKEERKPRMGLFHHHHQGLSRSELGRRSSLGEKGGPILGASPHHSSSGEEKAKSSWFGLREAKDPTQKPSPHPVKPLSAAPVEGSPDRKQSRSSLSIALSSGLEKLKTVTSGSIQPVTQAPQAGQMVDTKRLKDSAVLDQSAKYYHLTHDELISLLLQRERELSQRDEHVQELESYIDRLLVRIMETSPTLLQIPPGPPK
Chain of UniProt Q6WKZ4 (Q6WKZ4 whole entry): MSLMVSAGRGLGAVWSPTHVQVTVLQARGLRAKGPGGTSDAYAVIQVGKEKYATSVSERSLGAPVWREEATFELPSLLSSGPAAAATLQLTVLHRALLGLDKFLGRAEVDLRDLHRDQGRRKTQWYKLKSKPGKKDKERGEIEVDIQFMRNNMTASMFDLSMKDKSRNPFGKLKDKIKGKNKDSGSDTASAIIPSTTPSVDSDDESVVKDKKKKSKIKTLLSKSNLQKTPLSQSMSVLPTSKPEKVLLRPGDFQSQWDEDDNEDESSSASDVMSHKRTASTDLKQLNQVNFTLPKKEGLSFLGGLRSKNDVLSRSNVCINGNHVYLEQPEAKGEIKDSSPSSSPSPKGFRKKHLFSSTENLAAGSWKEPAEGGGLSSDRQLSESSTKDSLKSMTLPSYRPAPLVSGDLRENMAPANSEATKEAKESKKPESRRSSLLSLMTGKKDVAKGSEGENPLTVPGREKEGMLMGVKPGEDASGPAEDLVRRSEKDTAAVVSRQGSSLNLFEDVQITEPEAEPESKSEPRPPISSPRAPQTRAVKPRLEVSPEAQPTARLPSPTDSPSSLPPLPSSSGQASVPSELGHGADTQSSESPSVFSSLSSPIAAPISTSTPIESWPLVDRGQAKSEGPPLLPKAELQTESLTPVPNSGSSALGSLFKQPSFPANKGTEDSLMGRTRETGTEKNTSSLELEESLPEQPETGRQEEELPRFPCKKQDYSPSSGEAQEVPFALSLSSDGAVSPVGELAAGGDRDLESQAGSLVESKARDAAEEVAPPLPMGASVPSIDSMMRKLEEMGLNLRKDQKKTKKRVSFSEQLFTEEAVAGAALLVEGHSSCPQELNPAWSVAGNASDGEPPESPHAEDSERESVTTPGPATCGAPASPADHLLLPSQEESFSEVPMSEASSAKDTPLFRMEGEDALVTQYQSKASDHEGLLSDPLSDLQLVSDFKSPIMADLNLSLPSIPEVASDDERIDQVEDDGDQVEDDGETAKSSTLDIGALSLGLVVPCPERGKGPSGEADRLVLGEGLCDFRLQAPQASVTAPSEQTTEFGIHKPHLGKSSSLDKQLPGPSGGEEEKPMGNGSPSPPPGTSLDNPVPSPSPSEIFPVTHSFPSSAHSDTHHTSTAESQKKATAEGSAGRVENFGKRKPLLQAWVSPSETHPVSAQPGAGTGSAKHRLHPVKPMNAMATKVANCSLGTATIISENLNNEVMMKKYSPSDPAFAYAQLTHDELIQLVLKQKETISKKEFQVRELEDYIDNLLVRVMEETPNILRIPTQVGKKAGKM
Chain of UniProt Q3YEC7 (Q3YEC7 whole entry): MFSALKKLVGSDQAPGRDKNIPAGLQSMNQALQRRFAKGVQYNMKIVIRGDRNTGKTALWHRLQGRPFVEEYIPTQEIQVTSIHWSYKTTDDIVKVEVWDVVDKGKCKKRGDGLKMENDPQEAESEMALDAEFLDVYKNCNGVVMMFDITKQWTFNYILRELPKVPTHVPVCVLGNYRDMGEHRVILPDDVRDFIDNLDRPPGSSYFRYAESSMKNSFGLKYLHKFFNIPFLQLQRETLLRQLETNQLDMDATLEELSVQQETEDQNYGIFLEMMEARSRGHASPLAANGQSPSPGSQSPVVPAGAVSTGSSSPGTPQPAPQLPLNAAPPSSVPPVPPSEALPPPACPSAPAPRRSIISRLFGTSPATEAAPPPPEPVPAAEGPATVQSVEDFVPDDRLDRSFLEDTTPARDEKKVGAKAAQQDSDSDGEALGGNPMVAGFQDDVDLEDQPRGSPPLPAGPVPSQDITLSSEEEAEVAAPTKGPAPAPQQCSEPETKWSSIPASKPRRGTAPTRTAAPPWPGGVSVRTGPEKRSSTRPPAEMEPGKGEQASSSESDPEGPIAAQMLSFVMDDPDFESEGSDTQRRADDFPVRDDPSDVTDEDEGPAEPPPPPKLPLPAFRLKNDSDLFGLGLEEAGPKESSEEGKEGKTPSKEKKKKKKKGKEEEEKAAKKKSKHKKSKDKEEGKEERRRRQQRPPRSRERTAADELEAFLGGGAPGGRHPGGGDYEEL
Chain of UniProt Q15907 (Q15907 whole entry): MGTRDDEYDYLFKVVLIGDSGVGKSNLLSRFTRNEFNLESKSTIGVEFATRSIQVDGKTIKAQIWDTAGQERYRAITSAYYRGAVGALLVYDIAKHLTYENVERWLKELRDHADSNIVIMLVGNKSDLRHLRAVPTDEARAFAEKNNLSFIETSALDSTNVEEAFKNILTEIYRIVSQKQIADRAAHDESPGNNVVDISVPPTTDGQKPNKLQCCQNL
Chain of UniProt Q9H0H5 (Q9H0H5 whole entry): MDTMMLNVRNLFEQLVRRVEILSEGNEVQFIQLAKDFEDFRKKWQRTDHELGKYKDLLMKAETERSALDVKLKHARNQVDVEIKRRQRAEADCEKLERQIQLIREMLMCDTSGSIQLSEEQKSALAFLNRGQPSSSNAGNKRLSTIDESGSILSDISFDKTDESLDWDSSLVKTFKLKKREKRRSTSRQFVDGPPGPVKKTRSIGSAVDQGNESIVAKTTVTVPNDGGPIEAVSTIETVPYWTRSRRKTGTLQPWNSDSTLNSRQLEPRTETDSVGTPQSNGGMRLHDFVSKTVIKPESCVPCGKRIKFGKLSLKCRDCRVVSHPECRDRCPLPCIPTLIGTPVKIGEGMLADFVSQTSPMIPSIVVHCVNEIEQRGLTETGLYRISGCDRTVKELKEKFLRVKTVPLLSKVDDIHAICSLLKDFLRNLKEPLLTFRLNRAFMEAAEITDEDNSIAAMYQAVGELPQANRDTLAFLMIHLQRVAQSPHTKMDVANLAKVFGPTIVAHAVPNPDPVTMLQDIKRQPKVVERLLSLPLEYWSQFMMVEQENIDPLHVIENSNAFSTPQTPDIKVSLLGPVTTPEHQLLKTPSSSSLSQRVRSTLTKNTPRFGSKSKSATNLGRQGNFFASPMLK
Chain of UniProt P20338 (P20338 whole entry): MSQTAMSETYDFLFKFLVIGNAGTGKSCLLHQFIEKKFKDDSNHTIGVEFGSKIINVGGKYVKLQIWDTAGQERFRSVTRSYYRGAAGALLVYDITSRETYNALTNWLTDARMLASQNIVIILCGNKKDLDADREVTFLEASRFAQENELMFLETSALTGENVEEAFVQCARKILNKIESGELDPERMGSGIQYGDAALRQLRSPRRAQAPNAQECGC
Chain of UniProt Q5HYI8 (Q5HYI8 whole entry): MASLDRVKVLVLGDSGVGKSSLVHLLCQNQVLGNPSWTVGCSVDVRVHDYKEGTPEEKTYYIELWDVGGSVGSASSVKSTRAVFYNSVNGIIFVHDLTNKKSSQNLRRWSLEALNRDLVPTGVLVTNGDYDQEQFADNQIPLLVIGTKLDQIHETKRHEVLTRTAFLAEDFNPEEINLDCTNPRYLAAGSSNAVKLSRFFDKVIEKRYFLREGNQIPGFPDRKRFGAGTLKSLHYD

Target	thermal stability z-score [1]	thermal stability z-score [2, 3]	thermal stability z-score ([2]; arsenate co-treatment: none)
RAB4A (UniProt P20338)	0.408	0.387	0.311
RAB5A (UniProt P20339)	-0.695	-0.751	-0.744
RAB5B (UniProt P61020)	-0.758	0.278	-0.614
RAB5C (UniProt P51148)	0.552	0.345	0.119
RAB6A (UniProt P20340)	0.284	0.448	0.693
RAB7A (UniProt P51149)	0.258	0.164	0.352
RAB8A (UniProt P61006)	0.332	0.0143	0.344
RAB8B (UniProt Q92930)	-0.115	0.327	0.127
RAB9A (UniProt P51151)	0.801	0.654	0.721
RAB10 (UniProt P61026)	0.276	0.387	0.379
RAB11B (UniProt Q15907)	-0.384	-0.384	-1.01
RAB11FIP1 (UniProt Q6WKZ4)	-0.162	0.271	-0.127
RAB11FIP5 (UniProt Q9BXF6)	0.895	0.135	-1.43
RAB12 (UniProt Q6IQ22)	0.678	1.06	1.06
RAB13 (UniProt P51153)	0.695	-0.898	-0.475
RAB14 (UniProt P61106)	0.48	0.738	0.522
RAB18 (UniProt Q9NP72)	0.672	0.167	0.352
RAB20 (UniProt Q9NX57)	-0.306	-0.495	-0.609
RAB21 (UniProt Q9UL25)	0.119	0.0174	0.118
RAB22A (UniProt Q9UL26)	-0.396	0.482	0.207
RAB23 (UniProt Q9ULC3)	-0.626	0.712	0.437
RAB24 (UniProt Q969Q5)	-0.143	0.205	0.12
RAB27A (UniProt P51159)	0.579	0.277	-0.14
RAB27B (UniProt O00194)	0.58	0.463	0.0912
RAB29 (UniProt O14966)	0.157	0.114	-0.0606
RAB30 (UniProt Q15771)	0.498	-0.315	-0.0453
RAB31 (UniProt Q13636)	0.42	0.762	0.822
RAB32 (UniProt Q13637)	0.411	-0.0545	-0.0863

Target	thermal stability z-score [1]	thermal stability z-score [2, 3]	thermal stability z-score ([2]; arsenate co-treatment: none)
RAB33B (UniProt Q9H082)	0.955	0.43	0.463
RAB34	-0.0345	0.732	0.783
RAB35 (UniProt Q15286)	-0.435	-0.564	0.0595
RAB43 (UniProt Q86YS6)	1.35	-0.0743	1.38
RABAC1 (UniProt Q9UI14)	-0.431	0.138	-0.0907
RABEP1 (UniProt Q15276)	0.182	-0.36	-0.194
RABEP2 (UniProt Q9H5N1)	1.26	0.129	0.15
RABEPK (UniProt Q7Z6M1)	-0.0506	0.68	0.305
RABGAP1 (UniProt Q9Y3P9)	0.318	-0.333	-0.253
RABGAP1L	0.339	-0.279	-0.536
RABGEF1 (UniProt Q9UJ41)	-0.113	-0.0343	-0.0874
RABGGTA (UniProt Q92696)	-0.000862	-0.0918	-0.138
RABGGTB (UniProt P53611)	1.46	0.508	-0.0991
RABIF (UniProt P47224)	-0.572	0.243	0.233
RABL2A|RABL2B	-0.151	0.0788	-0.011
RABL3 (UniProt Q5HYI8)	-0.0747	-0.437	-0.307
RABL6 (UniProt Q3YEC7)	-0.246	-0.678	-0.754
RAC1 (UniProt P63000)	0.562	0.154	-0.0299
RACGAP1 (UniProt Q9H0H5)	-0.148	-0.198	-0.0575
RACK1 (UniProt P63244)	-0.92	0.56	0.4
RAD1 (UniProt O60671)	1.31	1.26	0.445
RAD17 (UniProt O75943)	-0.848	-0.324	-0.278
RAD18 (UniProt Q9NS91)	-0.0799	-0.082	-0.0293
RAD21 (UniProt O60216)	0.297	0.628	0.377
RAD23A (UniProt P54725)	-0.142	0.0472	0.234
RAD23B (UniProt P54727)	0.357	1.08	1.05
RAD50 (UniProt Q92878)	-0.768	0.0652	-0.163
